Assay results taken from EP0293900B1, “Phenolic thioethers, sulfoxides, and disulfides as inhibitors of 5-lipoxygenase” (G.D. Searle & Co., priority 1987, dated 1988).

Molecular target: T1, 5-lipoxygenase (Rattus norvegicus, UniProt P12527)
T1 construct: The 100,000 x g supernatant fraction of Rat Basophilic Leukemia Cell Homogenate (RBL-1) serves as a 5-lipoxygenase enzyme source; endogenous in cells; host or cells: RBL-1 (rat basophilic leukemia) cells, 100,000 x g supernatant of the homogenate
T1 sequence (P12527 1-673): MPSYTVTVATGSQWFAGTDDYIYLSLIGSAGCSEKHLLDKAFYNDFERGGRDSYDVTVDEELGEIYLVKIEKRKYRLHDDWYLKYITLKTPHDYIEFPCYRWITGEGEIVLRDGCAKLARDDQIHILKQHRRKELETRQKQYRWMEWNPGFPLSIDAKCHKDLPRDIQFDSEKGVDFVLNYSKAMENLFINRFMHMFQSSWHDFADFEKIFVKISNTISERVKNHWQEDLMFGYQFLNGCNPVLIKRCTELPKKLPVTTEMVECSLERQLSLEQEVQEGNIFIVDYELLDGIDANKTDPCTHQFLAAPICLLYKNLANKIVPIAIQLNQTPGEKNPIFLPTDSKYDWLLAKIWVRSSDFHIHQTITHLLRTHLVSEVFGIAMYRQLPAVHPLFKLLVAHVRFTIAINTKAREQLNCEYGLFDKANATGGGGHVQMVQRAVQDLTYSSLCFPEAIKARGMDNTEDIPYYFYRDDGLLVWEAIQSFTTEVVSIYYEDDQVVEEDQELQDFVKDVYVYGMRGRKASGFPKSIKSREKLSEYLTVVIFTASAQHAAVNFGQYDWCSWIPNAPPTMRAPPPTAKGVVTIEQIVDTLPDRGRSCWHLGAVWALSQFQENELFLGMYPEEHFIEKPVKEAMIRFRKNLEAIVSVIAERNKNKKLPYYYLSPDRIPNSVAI
Test: Inhibition of 5-lipoxygenase, in vitro (5-HETE synthesis from [1-14C]-arachidonic acid, RBL-1 supernatant)
Type: biochemical
Conditions: 100,000 x g supernatant of Rat Basophilic Leukemia Cell Homogenate (RBL-1), active = 30% or more inhibition of 5-HETE synthesis, initial screening 1 x 10⁻⁴M; for IC50: read-out: 5-Lipoxygenase Inhibition, in vitro. IC₅₀
Procedure: The compounds of the invention are evaluated with respect to 5-lipoxygenase inhibition according to the following assay procedure.
Inhibition of 5-lipoxygenase, in vitro: anti-inflammatory, anti-allergy activities.
The 100,000 x g supernatant fraction of Rat Basophilic Leukemia Cell Homogenate (RBL-1) serves as a 5-lipoxygenase enzyme source. The enzyme is incubated with [1-¹⁴C)-arachidonic acid and Ca⁺⁺ in the presence and absence of test compound. The product of 5-lipoxygenase, 5-hydroxyeicosatetraenoic acid (5-HETE), is separated by thin-layer chromatography and measured by radioactivity. A compound inhibiting 5-HETE synthesis by 30% or more is considered active at that concentration. Initial screening doses are 1 x 10⁻⁴M.

Compound | IC50 | 5-Lipoxygenase Inhibition, in vitro. IC₅₀
CC(C)(C)c1cc(SCCCC(=O)O)cc(C(C)(C)C)c1O [Example 3, 4-[[3,5-bis(1,1-dimethylethyl)-4-hydroxyphenyl]thio] butanoic acid] | 1 µM | 
CC(C)(C)c1cc(SCCCCC(=O)O)cc(C(C)(C)C)c1O [Example 4, 5-[[3,5-bis(1,1-dimethylethyl)-4-hydroxyphenyl]thio]pentanoic acid] | 1.1 µM | 
CCOC(=O)C(C)Sc1cc(C(C)(C)C)c(O)c(C(C)(C)C)c1 (centres unmarked) [Example 5, Ethyl 2-[[3,5-bis(1,1-dimethylethyl)-4-hydroxyphenyl]thio]propanoate] | 0.39 µM | 
CCCC(Sc1cc(C(C)(C)C)c(O)c(C(C)(C)C)c1)C(=O)OCC (centres unmarked) [Example 7, Ethyl 2-[[3,5-bis(1,1-dimethylethyl)-4-hydroxyphenyl]thio]pentanoate] | 1.3 µM | 
CCCC(Sc1cc(C(C)(C)C)c(O)c(C(C)(C)C)c1)C(=O)O (centres unmarked) [Example 8] | 6.6 µM | 
COC(=O)CCSc1cc(C(C)(C)C)c(O)c(C(C)(C)C)c1 [Example 9, Methyl 3-[[3,5-bis(1,1-dimethylethyl)-4-hydroxyphenol]thio]propanoate] | 0.38 µM | 
COC(=O)CC[S+]([O-])c1cc(C(C)(C)C)c(O)c(C(C)(C)C)c1 (centres unmarked) [Example 10, Methyl 3-[[3,5-bis(1,1-dimethylethyl)-4-hydroxyphenyl]sulfinyl]propanoate] | 16.5 µM | 
COC(=O)CCS(=O)(=O)c1cc(C(C)(C)C)c(O)c(C(C)(C)C)c1 [Example 11, Methyl 3-[[3,5-bis(1,1 dimethylethyl)-4-hydroxyphenyl]sulfonyl]propanoate] |  | Inactive
CC(C)(C)c1cc(SCCC(=O)O)cc(C(C)(C)C)c1O [Example 12, 3-[[3,5-bis(1,1-dimethylethyl)-4-hydroxyphenyl]thio]propanic acid] | 3.4 µM | 
CCOC(=O)C=CCCSc1cc(C(C)(C)C)c(O)c(C(C)(C)C)c1 [Example 13, Ethyl 5-[[3,5-bis(1,1-dimethylethyl)-4-hydroxyphenyl]thio]-2-pentenoate] | 0.26 µM | 
COC(=O)CSSc1cc(C(C)(C)C)c(O)c(C(C)(C)C)c1 [Example 14, Methyl [[3,5-bis(1,1-dimethylethyl)-4-hydroxyphenyl]dithio]acetate] | 0.4 µM | 
